What was measured:
TF/FVIIa = TF/FVIIa (Homo sapiens, UniProt P08709); experiment: TF/FVIIa inhibition (TF/FVIIa-IC50); format: biochemical
From the text: The inhibition of factor VIIa by the compounds according to the invention and the measurement of the anticoagulant and antithrombotic activity can be determined by conventional in-vitro or in-vivo methods. A conventional method for the measurement of the inhibition of factor VIIa is described, for example, by H. F. Ronning et al. in Thrombosis Research 1996, 84, 73-81.

FXa = FXa (Homo sapiens, UniProt P00742); experiment: Factor Xa inhibition (FXa-IC50); format: biochemical
From the text: The inhibition of factor Xa by the compounds according to the invention and the measurement of the anticoagulant and antithrombotic activity can be determined by conventional in-vitro or in-vivo methods. A suitable method is described, for example, by J. Hauptmann et al. in Thrombosis and Haemostasis 1990, 63, 220-223.
The inhibition of factor Xa can be measured, for example by the method of T. Hara et al. in Thromb. Haemostas. 1994, 71, 314-319.

Sequence of TF/FVIIa (P08709 213-466 limits assumed): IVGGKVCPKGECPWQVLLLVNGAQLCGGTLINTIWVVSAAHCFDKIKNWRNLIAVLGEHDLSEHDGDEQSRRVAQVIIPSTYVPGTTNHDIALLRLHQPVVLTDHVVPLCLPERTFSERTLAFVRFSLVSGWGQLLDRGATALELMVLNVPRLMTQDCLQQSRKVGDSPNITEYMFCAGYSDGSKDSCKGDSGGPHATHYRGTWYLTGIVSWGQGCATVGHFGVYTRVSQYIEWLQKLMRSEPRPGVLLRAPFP
Sequence of TF/FVIIa (P08709 61-212 limits assumed): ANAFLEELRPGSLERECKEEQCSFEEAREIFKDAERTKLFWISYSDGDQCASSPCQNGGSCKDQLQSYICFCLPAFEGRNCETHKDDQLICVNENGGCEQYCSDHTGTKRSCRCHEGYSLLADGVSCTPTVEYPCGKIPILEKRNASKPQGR
Sequence of TF/FVIIa (P13726 33-295 partner): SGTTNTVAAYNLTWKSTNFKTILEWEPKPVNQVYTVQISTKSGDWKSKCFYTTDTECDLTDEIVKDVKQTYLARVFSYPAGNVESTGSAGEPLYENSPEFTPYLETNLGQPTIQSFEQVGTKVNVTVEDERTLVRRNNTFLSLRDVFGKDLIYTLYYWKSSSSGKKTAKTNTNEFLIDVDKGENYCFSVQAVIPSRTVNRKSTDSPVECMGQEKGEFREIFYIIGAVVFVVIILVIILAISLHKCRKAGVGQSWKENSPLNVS
Sequence of FXa (P00742 235-488 limits assumed): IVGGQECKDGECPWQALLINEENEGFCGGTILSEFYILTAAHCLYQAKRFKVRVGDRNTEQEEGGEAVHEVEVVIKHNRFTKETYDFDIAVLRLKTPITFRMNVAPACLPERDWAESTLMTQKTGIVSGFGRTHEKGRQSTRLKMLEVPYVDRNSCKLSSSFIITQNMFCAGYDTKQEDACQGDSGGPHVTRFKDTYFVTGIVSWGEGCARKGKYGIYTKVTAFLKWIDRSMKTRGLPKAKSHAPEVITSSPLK
Sequence of FXa (P00742 41-179 limits assumed): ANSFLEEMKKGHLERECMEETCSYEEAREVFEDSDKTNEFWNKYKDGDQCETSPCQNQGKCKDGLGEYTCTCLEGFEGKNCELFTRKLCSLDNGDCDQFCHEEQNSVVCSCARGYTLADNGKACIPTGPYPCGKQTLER

Structure (SMILES) | IC50 (TF/FVIIa) [nM] | IC50 (FXa) [nM] | melting point [°C]
CCCN(NC(=O)c1ccc(Cl)s1)C(=O)Nc1ccc(N2CCOCC2=O)cc1 [Compound A1, 1-(5-chlorothien-2-ylcarbonyl)-4-[4-(3-oxomorpholin-4-yl)phenyl]-2-propylsemicarbazide] | 830 | 390 | 101 to 102
C#CCN(NC(=O)c1ccc(Cl)s1)C(=O)Nc1ccc(N2CCOCC2=O)c(C)c1 [Compound A2, 1-(5-chlorothien-2-ylcarbonyl)4-[3-methyl-4-(3-oxomorpholin4-yl)-phenyl]-2-(prop-2-ynyl)semicarbazide] | 1000 | 570 | 
Cc1cc(NC(=O)N(Cc2ccccc2)NC(=O)c2sccc2Cl)ccc1N1CCOCC1=O [Compound A3, 1-(3-chlorothien-2-ylcarbonyl)4-[3-methyl4-(3-oxomorpholin4-yl)-phenyl]-2-benzylsemicarbazide] | 180 | 87 | 
